In brackets after ≈: the same amount, converted by molar mass.
Experiments:
[1] = tested on: Mycobacterium tuberculosis; assay: Minimum inhibitory concentration against H37Ra stain of Mycobacterium tuberculosis using MABA method; format: functional
[2] = tested on: Mycobacterium tuberculosis; assay: Minimum inhibitory concentration against H37Rv stain of Mycobacterium tuberculosis using Agar Microdilution; format: functional

Compound	MIC [1] [µg/mL]	MIC [2] [µg/mL]
c1cncc(COc2ccc(CC3CC3)cc2)c1	> 25	25 (≈ 104 µM)
O=C(c1ccc(OCc2ccccc2Cl)cc1)C1CC1	> 25	12.5 (≈ 43.6 µM)
Fc1ccc(COc2ccc(CC3CC3)cc2)cc1		12.5 (≈ 48.8 µM)
COc1ccc(COc2ccc(CC3CC3)cc2)cc1OC	12.5 (≈ 41.9 µM)	25 (≈ 83.8 µM)
OC(c1ccc(OCc2ccncc2)cc1)C1CC1 (configuration not stated)	> 25	> 25
O=C(c1ccc(OCC2CCCC2)cc1)C1CC1	> 25	25 (≈ 102 µM)
OC(c1ccc(OCc2ccccc2)cc1)C1CC1 (configuration not stated)	> 50	25 (≈ 98.3 µM)
O=C(c1ccc(OCc2ccc(F)cc2)cc1)C1CC1	> 25	12.5 (≈ 46.2 µM)
COc1ccc(COc2ccc(C(O)C3CC3)cc2)cc1 (configuration not stated)	> 50	3.12 (≈ 11 µM)
c1ccc(COc2ccc(CC3CC3)cc2)cc1	> 50	12.5 (≈ 52.4 µM)
OC(c1ccc(OCc2ccccc2Cl)cc1)C1CC1 (configuration not stated)	> 25	
OC(c1ccc(OCc2ccco2)cc1)C1CC1 (configuration not stated)	> 25	> 25
O=C(c1ccc(OCc2ccccc2)cc1)C1CC1	25 (≈ 99.1 µM)	6.25 (≈ 24.8 µM)
COc1ccc(COc2ccc(C(=O)C3CC3)cc2)cc1	> 50	12.5 (≈ 44.3 µM)
COc1ccc(COc2ccc(C(=O)C3CC3)cc2)cc1OC	25 (≈ 80 µM)	12.5 (≈ 40 µM)
O=C(c1ccc(OCC2CCCCC2)cc1)C1CC1	> 25	> 25
Clc1ccccc1COc1ccc(CC2CC2)cc1	> 25	> 50
O=C(c1ccc(OCc2cccnc2)cc1)C1CC1	> 25	25 (≈ 98.7 µM)
O=C(c1ccc(OCc2ccc(Cl)cc2)cc1)C1CC1	> 25	25 (≈ 87.2 µM)
COc1ccc(COc2ccc(C(O)C3CC3)cc2)cc1OC (configuration not stated)	3.12 (≈ 9.92 µM)	> 50
O=C(c1ccc(OCCc2ccco2)cc1)C1CC1	25 (≈ 97.5 µM)	25 (≈ 97.5 µM)
O=C(c1ccc(OCc2ccc(Cl)c(Cl)c2)cc1)C1CC1	> 25	25 (≈ 77.8 µM)
OC(c1ccc(OCC2CCCC2)cc1)C1CC1 (configuration not stated)	25 (≈ 101 µM)	3.12 (≈ 12.7 µM)
OC(c1ccc(OCc2cccnc2)cc1)C1CC1 (configuration not stated)	> 25	> 25
COc1ccc(COc2ccc(CC3CC3)cc2)cc1	> 25	25 (≈ 93.2 µM)
OC(c1ccc(OCc2ccc(F)cc2)cc1)C1CC1 (configuration not stated)	25 (≈ 91.8 µM)	6.25 (≈ 23 µM)
O=C(c1ccc(OCc2ccncc2)cc1)C1CC1	> 25	12.5 (≈ 49.3 µM)
